From PMC7790953 (ACS chemical neuroscience, 2020)
“Also recorded” adds a separate entry of the source.

Experiments:
[1] = test system: 9B1; format: binding, mouse; conditions: for Ki: read-out: Ki (9B1), pH 7.4; for Kd: read-out: Kd as printed in text (9B1)
[2] = test system: h9B1; format: binding; conditions: for Ki: read-out: Ki (h9B1), pH 7.4; for Kd: read-out: Kd as printed in text (h9B1)
[3] = test system: Ab15; conditions: ref SI Table S2; cited from earlier work
[4] = test system: 9B1; conditions: estimated in original report; cited from earlier work

Row | Compound | Binding with 9B1 in initial screening [1] | Binding with h9B1 in initial screening [2] | Ki [1] | Ki [2] | IC50 [3] | Binding constant of 9B1 with morphine [4] | Kd [1] | Kd [2]
1 | C=CCN1CC[C@]23c4c5ccc(O)c4O[C@H]2C(=O)CC[C@@]3(O)[C@H]1C5 [naloxone] | did not show significant binding affinities; also recorded: without significant binding | did not show significant binding affinities; also recorded: without significant binding | – | – | – | – | – | –
2 | O=C1CC[C@@]2(O)[C@H]3Cc4ccc(O)c5c4[C@@]2(CCN3CC2CC2)[C@H]1O5 [naltrexone] | did not show significant binding affinities; also recorded: without significant binding | did not show significant binding affinities; also recorded: without significant binding | > 10000 nM | > 10000 nM | 310 nM | – | – | –
3 | CN1CC[C@]23c4c5ccc(O)c4O[C@H]2[C@@H](O)C=C[C@H]3[C@H]1C5 [morphine] | – | – | – | – | – | ~ 10^9 M^−1 | – | –
4 | CC(=O)Oc1ccc2c3c1O[C@H]1[C@@H](OC(C)=O)C=C[C@H]4[C@@H](C2)N(C)CC[C@@]341 [heroin] | – | – | 1.3 nM | 11.8 nM | – | – | 1.3 nM | 11.8 nM
5 | COc1ccc2c3c1O[C@H]1C(=O)CC[C@H]4[C@@H](C2)N(C)CC[C@]314 [hydrocodone] | – | – | 8.2 nM | 39.3 nM | – | – | 8.2 nM | 39.3 nM
6 | CC(=O)O[C@H]1C=C[C@H]2[C@H]3Cc4ccc(O)c5c4[C@@]2(CCN3C)[C@H]1O5 [6-MAM, 6-monoacetylmorphine] | – | – | 4.8 nM | 11.9 nM | – | – | 4.8 nM | 11.9 nM
7 | COc1ccc2c3c1O[C@H]1C(=O)CC[C@@]4(O)[C@@H](C2)N(C)CC[C@]314 [oxycodone] | – | – | 2670 nM | 6910 nM | – | – | – | –
8 | buprenorphine | did not show significant binding affinities; also recorded: without significant binding | did not show significant binding affinities; also recorded: without significant binding | – | – | – | – | – | –
